Data taken from US11655235B2, “Pyrrolidine and piperidine compounds” (YUHAN CORPORATION, priority 2019, dated 2023).
Where two headings read alike, the source gives them in different places.

How the values were obtained:
Type in all cases: biochemical
recombinant human DPP9 = molecular target: T1, recombinant human DPP9 (Homo sapiens, UniProt Q86TI2); assay: DPP9 inhibition, fluorogenic substrate H-Gly-Pro-AMC
T1 construct: purchased R&D Systems
In short: (§1)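 Inhibitors are titrated in an 8-point series into the enzyme's assay buffer (DMSO no more than 0.5%). Substrate cleavage at 25 °C is followed by fluorescence, excitation 380 nm and emission 460 nm. IC50 values come from a four-variable logistic model.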

recombinant human DPP8 = molecular target: T2, recombinant human DPP8 (Homo sapiens, UniProt Q6V1X1); assay: DPP8 inhibition, fluorogenic substrate Z-Ala-Pro-AMC
T2 construct: purchased PBS Bioscience
T2 sequence (Q6V1X1 whole entry): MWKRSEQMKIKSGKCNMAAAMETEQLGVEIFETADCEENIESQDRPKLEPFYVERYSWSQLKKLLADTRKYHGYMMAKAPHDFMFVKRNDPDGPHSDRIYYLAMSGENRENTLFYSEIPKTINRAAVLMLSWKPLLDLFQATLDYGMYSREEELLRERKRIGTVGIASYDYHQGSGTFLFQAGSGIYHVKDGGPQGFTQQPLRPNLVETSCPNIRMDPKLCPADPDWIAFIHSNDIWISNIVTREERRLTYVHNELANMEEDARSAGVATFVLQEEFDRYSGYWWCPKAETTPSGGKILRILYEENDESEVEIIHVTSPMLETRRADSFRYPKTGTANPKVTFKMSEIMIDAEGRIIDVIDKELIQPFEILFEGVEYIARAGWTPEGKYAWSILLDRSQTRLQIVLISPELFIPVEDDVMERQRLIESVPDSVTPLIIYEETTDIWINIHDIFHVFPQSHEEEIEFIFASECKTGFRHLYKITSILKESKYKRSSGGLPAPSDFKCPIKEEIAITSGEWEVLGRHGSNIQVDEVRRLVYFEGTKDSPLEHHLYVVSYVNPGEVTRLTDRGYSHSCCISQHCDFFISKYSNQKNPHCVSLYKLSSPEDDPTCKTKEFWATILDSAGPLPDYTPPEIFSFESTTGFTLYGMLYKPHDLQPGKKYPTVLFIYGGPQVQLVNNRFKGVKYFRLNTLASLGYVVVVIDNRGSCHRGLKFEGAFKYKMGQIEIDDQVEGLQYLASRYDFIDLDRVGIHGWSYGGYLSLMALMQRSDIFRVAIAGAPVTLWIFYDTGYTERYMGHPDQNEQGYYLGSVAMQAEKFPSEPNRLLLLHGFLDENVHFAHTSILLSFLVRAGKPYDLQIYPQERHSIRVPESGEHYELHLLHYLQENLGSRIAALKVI
In short: as §1

DPP4 = DPP4 (Homo sapiens, UniProt P27487); assay: DPP4 inhibition, fluorogenic substrate H-Gly-Pro-AMC; parameters: purchased R&D Systems
DPP4, sequence (P27487 whole entry): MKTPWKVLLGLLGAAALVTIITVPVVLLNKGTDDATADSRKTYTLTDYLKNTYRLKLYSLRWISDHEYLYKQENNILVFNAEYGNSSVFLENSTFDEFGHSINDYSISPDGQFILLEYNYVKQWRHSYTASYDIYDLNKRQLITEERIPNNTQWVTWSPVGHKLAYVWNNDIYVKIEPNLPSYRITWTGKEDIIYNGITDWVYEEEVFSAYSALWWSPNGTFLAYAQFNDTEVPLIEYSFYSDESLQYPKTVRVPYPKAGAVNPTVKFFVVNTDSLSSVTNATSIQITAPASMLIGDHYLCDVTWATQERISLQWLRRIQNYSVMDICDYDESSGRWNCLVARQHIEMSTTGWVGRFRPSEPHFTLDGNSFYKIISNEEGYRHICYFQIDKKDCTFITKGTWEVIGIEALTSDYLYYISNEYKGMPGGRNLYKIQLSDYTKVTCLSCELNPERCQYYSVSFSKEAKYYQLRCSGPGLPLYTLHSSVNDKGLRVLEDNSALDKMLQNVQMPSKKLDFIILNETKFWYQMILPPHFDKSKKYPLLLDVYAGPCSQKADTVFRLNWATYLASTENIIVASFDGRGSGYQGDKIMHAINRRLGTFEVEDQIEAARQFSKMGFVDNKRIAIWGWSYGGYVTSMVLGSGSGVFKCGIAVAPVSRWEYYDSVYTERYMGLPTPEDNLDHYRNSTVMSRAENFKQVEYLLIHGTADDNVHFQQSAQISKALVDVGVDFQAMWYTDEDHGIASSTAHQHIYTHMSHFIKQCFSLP

recombinant human DPP7 = molecular target: T3, recombinant human DPP7 (Homo sapiens, UniProt Q9UHL4); assay: DPP7 inhibition, fluorogenic substrate Lys-Pro-AMC
T3 construct: purchased R&D Systems
In short: as §1

Recombinant human FAP = molecular target: T4, Recombinant human FAP (Homo sapiens, UniProt Q12884); assay: FAP inhibition, fluorogenic substrate Z-Gly-Pro-AMC
T4 construct: purchased R&D systems
T4 sequence (Q12884 1-760): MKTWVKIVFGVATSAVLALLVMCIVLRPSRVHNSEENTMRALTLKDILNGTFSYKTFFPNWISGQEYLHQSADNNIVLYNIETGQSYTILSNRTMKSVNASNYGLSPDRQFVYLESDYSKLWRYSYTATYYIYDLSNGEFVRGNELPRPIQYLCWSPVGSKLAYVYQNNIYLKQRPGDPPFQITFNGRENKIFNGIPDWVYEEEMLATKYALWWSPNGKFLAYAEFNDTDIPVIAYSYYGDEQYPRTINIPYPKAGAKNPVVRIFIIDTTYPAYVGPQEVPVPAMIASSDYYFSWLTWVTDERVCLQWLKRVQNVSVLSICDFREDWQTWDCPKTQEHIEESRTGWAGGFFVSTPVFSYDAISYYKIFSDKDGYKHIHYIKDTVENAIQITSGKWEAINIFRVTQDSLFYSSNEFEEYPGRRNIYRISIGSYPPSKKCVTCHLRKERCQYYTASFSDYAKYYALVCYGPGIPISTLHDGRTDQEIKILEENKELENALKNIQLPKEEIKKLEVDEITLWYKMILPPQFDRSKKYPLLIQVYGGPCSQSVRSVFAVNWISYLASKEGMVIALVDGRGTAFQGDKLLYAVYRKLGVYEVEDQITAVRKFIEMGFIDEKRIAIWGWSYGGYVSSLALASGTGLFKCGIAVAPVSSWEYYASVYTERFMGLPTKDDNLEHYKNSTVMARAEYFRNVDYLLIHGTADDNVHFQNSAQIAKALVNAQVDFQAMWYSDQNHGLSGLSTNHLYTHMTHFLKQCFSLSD
In short: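 Eight-point compound dilutions (≤0.1% DMSO) were incubated at 25° C with 10 ng recombinant human FAP in Tris pH 7.5/1 M NaCl/BSA buffer and Z-Gly-Pro-AMC. Inhibition was taken as % drop in fluorescence rate (380/460 nm) against uninhibited control; IC50 came from a four-parameter logistic fit.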

recombinant human PREP = molecular target: T5, recombinant human PREP (Homo sapiens, UniProt P48147); assay: PREP inhibition, fluorogenic substrate Z-Gly-Pro-AMC; settings: Inhibitory Activity (IC50, nM) PREP
T5 construct: purchased R&D System
T5 sequence (P48147 1-710): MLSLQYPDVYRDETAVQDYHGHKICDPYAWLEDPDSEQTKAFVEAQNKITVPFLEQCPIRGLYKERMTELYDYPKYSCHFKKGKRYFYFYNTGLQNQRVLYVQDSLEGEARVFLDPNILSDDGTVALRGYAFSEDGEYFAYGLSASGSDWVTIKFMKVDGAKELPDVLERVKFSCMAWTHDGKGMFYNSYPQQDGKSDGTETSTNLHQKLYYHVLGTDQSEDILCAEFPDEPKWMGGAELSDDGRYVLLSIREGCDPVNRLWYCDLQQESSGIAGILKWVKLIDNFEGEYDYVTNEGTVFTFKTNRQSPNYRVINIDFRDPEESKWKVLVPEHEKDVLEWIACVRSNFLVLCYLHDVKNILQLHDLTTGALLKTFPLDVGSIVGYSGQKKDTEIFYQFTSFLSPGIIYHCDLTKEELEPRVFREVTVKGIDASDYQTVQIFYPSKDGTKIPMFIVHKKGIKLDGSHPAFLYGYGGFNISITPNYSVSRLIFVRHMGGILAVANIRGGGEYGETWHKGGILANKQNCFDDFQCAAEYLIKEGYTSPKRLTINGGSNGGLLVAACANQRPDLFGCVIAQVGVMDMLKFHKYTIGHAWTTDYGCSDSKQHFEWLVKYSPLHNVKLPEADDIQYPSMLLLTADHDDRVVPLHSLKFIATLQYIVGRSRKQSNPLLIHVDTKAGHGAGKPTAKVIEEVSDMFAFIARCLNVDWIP
In short: as §1

[1] = recombinant human FAP, substrate Z-Gly-Pro-AMC
[2] = 25° C., H-Gly-Pro-AMC substrate
[3] = 25° C., Z-Ala-Pro-AMC substrate
[4] = 25° C., Z-Gly-Pro-AMC substrate

T1 sequence (Q86TI2 whole entry): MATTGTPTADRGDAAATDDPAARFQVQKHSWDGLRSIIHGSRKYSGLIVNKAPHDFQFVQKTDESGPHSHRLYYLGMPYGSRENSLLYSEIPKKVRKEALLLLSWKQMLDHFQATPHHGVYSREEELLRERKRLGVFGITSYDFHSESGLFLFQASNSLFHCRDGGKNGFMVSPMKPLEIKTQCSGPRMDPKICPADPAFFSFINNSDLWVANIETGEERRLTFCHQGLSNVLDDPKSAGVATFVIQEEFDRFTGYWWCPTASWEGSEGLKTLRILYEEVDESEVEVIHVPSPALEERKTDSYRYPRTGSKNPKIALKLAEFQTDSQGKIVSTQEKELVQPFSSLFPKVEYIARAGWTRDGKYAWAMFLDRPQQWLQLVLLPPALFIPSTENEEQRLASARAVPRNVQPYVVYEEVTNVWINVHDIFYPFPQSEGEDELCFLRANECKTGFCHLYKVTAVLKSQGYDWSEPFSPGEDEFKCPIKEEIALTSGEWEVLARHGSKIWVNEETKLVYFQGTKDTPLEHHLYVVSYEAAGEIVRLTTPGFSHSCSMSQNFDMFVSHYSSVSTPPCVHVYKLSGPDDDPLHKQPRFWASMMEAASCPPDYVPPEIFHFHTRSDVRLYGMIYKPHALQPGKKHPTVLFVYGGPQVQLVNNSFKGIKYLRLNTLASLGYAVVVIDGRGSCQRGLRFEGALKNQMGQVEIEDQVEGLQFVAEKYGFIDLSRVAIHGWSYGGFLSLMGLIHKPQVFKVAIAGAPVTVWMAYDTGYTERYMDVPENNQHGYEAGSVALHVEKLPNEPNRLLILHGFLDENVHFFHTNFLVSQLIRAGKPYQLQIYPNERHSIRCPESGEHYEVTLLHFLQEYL

| SMILES | IC50 (recombinant human DPP9; recombinant human DPP9) | IC50 (recombinant human DPP8; recombinant human DPP8) | IC50 (DPP4; recombinant human DPP4) | IC50 (recombinant human DPP7; recombinant human DPP7) | IC50 (Recombinant human FAP; [1]) | IC50 (recombinant human PREP; recombinant human PREP) | IC50 (recombinant human DPP9; [2]) | IC50 (recombinant human DPP8; [3]) | IC50 (DPP4; [2]) | IC50 (recombinant human DPP7) | IC50 (Recombinant human FAP; [4]) | IC50 (recombinant human PREP; [4]) | inhibition at 1 µM (DPP4; read-out: hDPP4 inhibition % at 1 μM) |
| --- | --- | --- | --- | --- | --- | --- | --- | --- | --- | --- | --- | --- | --- |
| COc1cc2nccc(O[C@H]3CCN(CC(=O)N4C[C@@H](F)C[C@H]4C#N)C3)c2cc1OC [Example 300, (2S,4S)-4-fluoro-1-[2-[(3S)-3-[(6,7-dimethoxy-4-quinolyl)oxy]pyrrolidin-1-yl]acetyl]pyrrolidine-2-carbonitrile] | 12.1 µM | 17.8 µM | > 10 µM | 2.93 µM | 0.0019 µM | 4890 nM | – | – | – | – | – | – | – |
| N#C[C@@H]1C[C@H](F)CN1C(=O)CN1CCC(Nc2ccc(F)c3cnccc23)CC1 [Example 357, (2S,4S)-4-fluoro-1-[2-[4-[(8-fluoro-5-isoquinolyl)amino]-1-piperidyl]acetyl]pyrrolidine-2-carbonitrile] | 2.8 µM | 3.6 µM | 4.71 µM | 1.64 µM | 0.0038 µM | 4830 nM | – | – | – | – | – | – | – |
| COc1cc(NC2CCN(CC(=O)N3C[C@@H](F)C[C@H]3C#N)CC2)c2cccnc2c1 [Example 133, (2S,4S)-4-fluoro-1-(2-(4-((7-methoxyquinolin-5-yl)amino)piperidin-1-yl)acetyl)pyrrolidine-2-carbonitrile] | – | – | – | – | – | – | 6 µM | 6.48 µM | 6.02 µM | 0.153 µM | 0.00237 µM | 2600 nM | – |
| N#C[C@@H]1C[C@H](F)CN1C(=O)CN1CCC(Nc2ccc([N+](=O)[O-])c3cnccc23)CC1 [Example 356, (2S,4S)-4-fluoro-1-[2-[4-[(8-nitro-5-isoquinolyl)amino]-1-piperidyl]acetyl]pyrrolidine-2-carbonitrile] | 0.741 µM | 0.953 µM | 4.02 µM | 2.05 µM | 0.0037 µM | 4980 nM | – | – | – | – | – | – | – |
| N#Cc1ccc2c(N[C@H]3CCN(CC(=O)N4C[C@@H](F)C[C@H]4C#N)C3)cccc2n1 [Example 252, 5-[[(3S)-1-[2-oxo-2-[(2S,4S)-2-cyano-4-fluoro-pyrrolidin-1-yl]ethyl]pyrrolidin-3-yl]amino]quinoline-2-carbonitrile] | 4.93 µM | 2.48 µM | 1.63 µM | 0.308 µM | 0.0008 µM | 3320 nM | – | – | – | – | – | – | – |
| N#C[C@@H]1CCCN1C(=O)CN1CC[C@H](NC(=O)c2coc3cc(F)ccc23)C1 [Example 44, N—((S)-1-(2-((S)-2-cyanopyrrolidin-1-yl)-2-oxoethyl)pyrrolidin-3-yl)-6-fluorobenzofuran-3-carboxamide] | – | – | – | – | – | – | > 100 µM | 46.2 µM | – | 1.72 µM | 0.00507 µM | 12100 nM | 1.4% |
| COc1ccc2ncccc2c1N[C@H]1CCN(CC(=O)N2C[C@@H](F)C[C@H]2C#N)C1 [Example 260, (2S,4S)-4-fluoro-1-[2-[(3S)-3-[(6-methoxy-5-quinolyl)amino]pyrrolidin-1-yl]acetyl]pyrrolidine-2-carbonitrile] | 7.71 µM | 20.8 µM | 0.741 µM | 8.28 µM | 0.0058 µM | 6500 nM | – | – | – | – | – | – | – |
| N#C[C@@H]1CCCN1C(=O)CN1CC[C@H](Nc2cccc3sccc23)C1 [Example 20, (S)-1-(2-((S)-3-(benzo[b]thiophen-4-ylamino)pyrrolidin-1-yl)acetyl)pyrrolidine-2-carbonitrile] | – | – | – | – | – | – | 69.1 µM | 23.1 µM | > 1 µM | 2.12 µM | 0.00453 µM | 7230 nM | – |
| N#C[C@@H]1CC(F)(F)CN1C(=O)CN1CC[C@H](Nc2cncc3ccoc23)C1 [Example 12, (S)-4,4-difluoro-1-(2-((S)-3-(furo[3,2-c]pyridin-7-ylamino)pyrrolidin-1-yl)acetyl)pyrrolidine-2-carbonitrile] | – | – | – | – | – | – | 17.7 µM | 0.371 µM | > 1 µM | < 0.03 µM | 0.0005 µM | > 100000 nM | – |
